Columns and labels:
[1] = molecular target: T1, LINE1 reverse transcriptase (Homo sapiens, UniProt O00370); test: Transient artificial-intron Cis LINE1 reporter assay; type: cell-based; set-up: expressed in transfected cells; conditions: HEK 293 cells, ratio FLuc/RLuc reports LINE1 activity; read-out: IC50, inhibition of FLuc (FF/RR)
Description: Intron-disrupted Firefly luciferase (FLuc) expression cassettes were generated as described by Xie, Y. et al. “Characterization of L1 retrotransposition with high-throughput dual-luciferase assays,” Nucleic Acid Res. (2011) Vol. 39, No. 3, e16. In addition, the plasmid contained an intact Renilla luciferase (RLuc) expression cassette on the vector backbone, in order to normalize transfection efficiency and measure potential cell toxicity.
HEK 293 cells were seeded in 96-well plates at 1,000 cells/well in 55 μL and grown for 24 hours. Cells were transfected with FuGeneHD (Promega) following the manufacturer's protocol. Each well received 0.133 ng plasmid, 0.4 μL FuGeneHD reagent, and 4.5 μL GlutaMAX-I-supplemented Opti-MEM I reduced-serum medium (Invitrogen). Cells were simultaneously treated with test compound serially diluted starting at 100 μM in a 3-fold dilution dose response.
Luminescence was measured using the Dual-Glo Luciferase Assay System (Promega) following the manufacturer's instructions. The ratio between FLuc and RLuc gene expression was used to report LINE1 activity.

[2] = molecular target: T1, LINE1 reverse transcriptase; test: Stable artificial-intron Cis LINE1 reporter assay; type: cell-based; set-up: expressed in transfected cells; host or cells: HeLa Tet-On 3G (Takara, cat no 631183); conditions: HeLa L1 artificial-intron reporter cells, doxycycline induced, 72 h, Firefly luciferase; read-out: IC50, inhibition of LINE1 reverse transcriptase
Text: A stable HeLa Tet-On 3G (Takara, cat no 631183) cell line expressing a bi-directional inducible LINE1 construct was generated as described in Xie, Y. et al. “Cell division promotes efficient retrotransposition in a stable L1 reporter cell line,” Mobile DNA (2013) 4:10. Single cell clones were screened for high Luciferase expression and the highest expression Firefly expressing clone was chosen for compound testing.
Test compound was serially diluted in DMSO and spotted in 96-well plates. Subsequently the HeLa L1 artificial-intron reporter cells were plated into the compound-containing wells (8,000 cells/well), and the cells were induced for reporter expression with doxycycline (Sigma cat no D9891) at a final concentration of 500 ng/mL. Luminescence was measured 72 h after plating using the Dual-Glo Luciferase Assay System (Promega cat no E2940) following the manufacturer's instructions. The Firefly Luciferase activity was used to report LINE1 activity.

[3] = molecular target: T1, LINE1 reverse transcriptase; test: Homogeneous time-resolved fluorescence (HTRF) LINE1 RT assay; type: biochemical; set-up: recombinant MBP-tagged LINE1 protein (238-1061); MBP; made in house; conditions: recombinant MBP-tagged LINE1 protein (238-1061), read-out: IC50, inhibition of LINE1 reverse transcriptase
Description: The LINE1 reverse transcriptase homogeneous time-resolved fluorescence (HTRF) assay was performed with recombinant MBP-tagged LINE1 protein (238-1061) (generated and purified according to procedures in Dai L. et al. BMC Biochemistry 2011; 12:18) in a 384-well format. Test compound was serially diluted in DMSO and further diluted in the assay buffer (50 mM Tris-HCl, 50 mM KCl, 10 mM MgCl2, 10 mM DTT, pH 8.1) to achieve a final DMSO concentration of 1%. The serially diluted compound was mixed with 64 ng/well of LINE1 enzyme, 5 nM of pre-annealed template/biotin-primer pair (synthesized at Generay Biotechnology), 10 nM of Fluorescein-12-dATP fluorescent probe (Perkin Elmer), and 1 μM dGTP/dCTP/dTTP (Thermo Fisher Scientific) in the assay buffer. The template/biotin-primer sequences were as follows:
(§1) After incubating at 25° C. for 60 minutes, the detection reagent (20 mM EDTA with streptavidin-terbium cryptate, Cisbio Bioassay) in the PPI buffer (Cisbio Bioassay) was added, and the mixture was incubated at 25° C. for 30 minutes. At the end of the incubation, fluorescence was read at ex/em=337/485 nm and ex/em=337/520 nm on an Envision 2104 plate reader (Perkin Elmer). The fluorescence ratio at 520/485 nm was used for the calculation. […] The IC50 was calculated by fitting the compound dose inhibition curve with a 4-parameter non-linear regression equation.

[4] = molecular target: HERV-K reverse transcriptase (Homo sapiens, UniProt V9H0F6); test: Homogeneous time-resolved fluorescence (HTRF) HERV-K RT assay; type: biochemical; conditions: HERV-K reverse transcriptase (2-596)-8His protein, read-out: IC50, inhibition of HERV-K reverse transcriptase
HERV-K reverse transcriptase, sequence (V9H0F6 entry or part of it): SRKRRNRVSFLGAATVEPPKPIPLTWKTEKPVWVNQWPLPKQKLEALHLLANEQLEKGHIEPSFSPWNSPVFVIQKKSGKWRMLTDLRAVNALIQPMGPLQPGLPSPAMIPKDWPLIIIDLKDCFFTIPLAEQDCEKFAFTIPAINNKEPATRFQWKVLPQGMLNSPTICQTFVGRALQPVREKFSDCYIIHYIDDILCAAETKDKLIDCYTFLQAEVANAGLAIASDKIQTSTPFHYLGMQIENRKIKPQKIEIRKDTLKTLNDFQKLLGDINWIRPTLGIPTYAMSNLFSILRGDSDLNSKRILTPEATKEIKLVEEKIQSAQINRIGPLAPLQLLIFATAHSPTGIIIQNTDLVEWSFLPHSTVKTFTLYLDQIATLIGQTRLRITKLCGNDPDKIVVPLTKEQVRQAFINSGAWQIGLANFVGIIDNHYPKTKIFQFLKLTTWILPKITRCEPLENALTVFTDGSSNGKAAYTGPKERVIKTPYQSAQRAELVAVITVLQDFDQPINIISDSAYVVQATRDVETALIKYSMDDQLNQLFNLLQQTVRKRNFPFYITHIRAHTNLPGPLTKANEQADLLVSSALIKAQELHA
Description: The HERV-K reverse transcriptase homogeneous time-resolved fluorescence (HTRF) assay was performed in a 384-well format with HERV-K reverse transcriptase (2-596)-8His protein. Baculoviruses were created using Bac-to-Bac technology (Invitrogen). pFastBac donor plasmids containing HERV-K reverse transcriptase sequence (NCBI GenBank number AAC63291.1, J. Virology (1999) Vol. 73, No. 3, pp. 2365-2375) were transformed into DH10 Bac cells following the manufacturer's instructions. Recombinant bacmids were then isolated clonally and transfected into SF9 cells with lipofectin. HERV-K reverse transcriptase was expressed in the SF9 insect cells and then purified using immobilized metal affinity chromatography (IMAC) followed by size-exclusion chromatography (SEC). […]
as §1, with “30” for “60”, “20” for “(20”, “cryptate (Cisbio” for “cryptate, Cisbio”

THP1-Dual KO-TREX1 cells = test: CellTiter-Glo cell viability in THP1 TREX1 KO cells; type: cell-based; conditions: highest dose, with 1 μM 5-aza-2′-deoxycytidine, five days
Description: THP1 Dual TREX1 KO cells were purchased from Invivogen. The THP1-Dual™ KO-TREX1 cells were cultured in RPMI 1640, 10% heat-inactivated fetal bovine serum, 25 mM HEPES, 10 μg/mL Blasticidin, and 100 μg/mL Zeocin. THP1-Dual™ KO-TREX1 cells were treated with a dose titration of test compound in the presence of 1 μM 5-aza-2′-deoxycytidine (Sigma, cat #189825). Type 1 Interferon and cell viability were assessed after five days of treatment.
Stock solution of test compound was prepared in DMSO followed by a three-fold dilution in DMSO. Additional 50× dilution was prepared in cell culture media for each dilution. 10 μL of diluted test compound was then added to a 384-well plate.
THP1-Dual™ KO-TREX1 cells were treated with 1 μM 5-aza-2′-deoxycytidine. THP1-Dual™ KO-TREX1 cells (50 μL) were added to each well of the 384-well plate containing test compound titration at 10,000 cells/well. Cells were incubated at 37° C., 5% CO2 in a humidified incubator for five days. […] Luminescence was detected on a plate reader according to manufacturer's instructions. […]
The remaining cells were assessed for cell viability by adding 30 μl of CellTiter-Glo (Promega, 09683) solution to each well, and placed on a shaker for 10 minutes at room temperature. Luminescence was detected on a plate reader, according to manufacturer's instructions. […]

COC(=O)[C@H](C)NP(=O)(OC[C@@H]1C=C[C@H](n2cc(C)c(=O)[nH]c2=O)O1)Oc1ccc(Br)cc1 (some centres unmarked) [drawing 36]
IC50 [1]: 5.7 nM

COC(=O)[C@H](C)NP(=O)(OC[C@@H]1C=C[C@H](n2cc(C)c(=O)[nH]c2=O)O1)Oc1ccc(Br)cc1 (some centres unmarked) [drawing 37]
IC50 [2]: 17 nM

Cc1cn([C@H]2C=C[C@@H](COP(=O)(O)OP(=O)(O)OP(=O)(O)O)O2)c(=O)[nH]c1=O [drawing 38]
IC50 [3]: 23 nM

Cc1cn([C@H]2C=C[C@@H](COP(=O)(O)OP(=O)(O)OP(=O)(O)O)O2)c(=O)[nH]c1=O [drawing 39]
IC50 [4]: 42 nM

Cc1cn([C@H]2C=C[C@@H](CO)O2)c(=O)[nH]c1=O [stavudine, 1-((2R,5S)-5-(hydroxymethyl)-2,5-dihydrofuran-2-yl)-5-methylpyrimidine-2,4(1H,3H)-dione, reference compound]
reduction in cell viability (THP1-Dual KO-TREX1 cells): ~10%
